Experimental data: patent US20250195521A1 (Revolution Medicines, Inc., priority 2020, published 2025)
Where “and” joins values, the source holds several entries; their conditions need not be identical. Identical values can stand only once. Like-named read-outs stand apart in the source and are kept apart here.

How the values were obtained:
[1] = system: NCI-H358 cells (K-Ras G12C); experiment: CellTiter-Glo cell viability, NCI-H358; assay type: cell-based, human; conditions: K-Ras G12C, 5-day treatment, read-out: H358 Cell Viability IC50
How it was run: (§1)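 Luminescence read on day 5 after ~30 min room-temperature equilibration; compounds added directly to plated cells. Values = (sample signal/avg DMSO)*100, four-parameter logistic fit.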

[2] = system: Capan-1 cells (K-Ras G12V); experiment: CellTiter-Glo cell viability, Capan-1; assay type: cell-based, human; conditions: K-Ras G12V, 5-day treatment, read-out: Capan-1 Cell Viability IC50
How it was run: as §1

[3] = biological target: KRAS G12C (Homo sapiens (Human), UniProt P01116+P62937, G12C); experiment: Ras-Raf disruption/FRET/MOA assay (BRAF RBD, Cyclophilin A); assay type: biochemical; conditions: read-out: KRAS G12C FRET IC50
Sequence of KRAS G12C (P01116-2 other isoform, or with tags, fused parts or gaps G12C): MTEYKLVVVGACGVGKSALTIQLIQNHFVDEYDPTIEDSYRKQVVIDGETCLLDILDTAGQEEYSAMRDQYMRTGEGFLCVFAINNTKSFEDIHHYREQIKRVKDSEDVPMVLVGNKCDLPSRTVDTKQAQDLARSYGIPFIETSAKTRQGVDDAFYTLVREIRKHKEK
Sequence of KRAS G12C (P62937 whole entry): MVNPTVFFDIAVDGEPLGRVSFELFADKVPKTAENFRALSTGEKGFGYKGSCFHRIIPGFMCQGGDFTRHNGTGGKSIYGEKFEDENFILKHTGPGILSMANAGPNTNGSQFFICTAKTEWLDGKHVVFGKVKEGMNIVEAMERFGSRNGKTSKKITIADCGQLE
How it was run: (§2)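 His6-K-Ras-GMPPNP (12.5 nM), GST-BRAF RBD (50 nM) and tagless Cyclophilin A (25 μM) were combined in 25 mM HEPES pH 7.3 with 100 mM NaCl, 5 mM MgCl2, 0.1% BSA and 0.002% Tween20, with compound as a 10-point 3-fold series from 30 μM final, then incubated 3 h at 25° C.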

[4] = biological target: KRAS G12D (Homo sapiens (Human), UniProt P01116+P62937, G12D); experiment: as above; assay type: biochemical; conditions: read-out: KRAS G12D FRET IC50
Sequence of KRAS G12D (P01116 other isoform, or with tags, fused parts or gaps G12D): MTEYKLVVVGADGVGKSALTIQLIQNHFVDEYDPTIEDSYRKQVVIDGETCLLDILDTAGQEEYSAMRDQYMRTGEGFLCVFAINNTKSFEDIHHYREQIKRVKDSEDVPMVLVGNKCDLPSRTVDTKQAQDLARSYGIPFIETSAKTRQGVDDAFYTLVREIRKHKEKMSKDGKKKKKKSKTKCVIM
Sequence of KRAS G12D (P62937 whole entry): as the sequence (P62937 whole entry) above
How it was run: as §2

[5] = biological target: KRAS G12S (Homo sapiens (Human), UniProt P01116+P62937, G12S); experiment: as above; assay type: biochemical; conditions: read-out: KRAS G12S FRET IC50
Sequence of KRAS G12S (P01116 other isoform, or with tags, fused parts or gaps G12S): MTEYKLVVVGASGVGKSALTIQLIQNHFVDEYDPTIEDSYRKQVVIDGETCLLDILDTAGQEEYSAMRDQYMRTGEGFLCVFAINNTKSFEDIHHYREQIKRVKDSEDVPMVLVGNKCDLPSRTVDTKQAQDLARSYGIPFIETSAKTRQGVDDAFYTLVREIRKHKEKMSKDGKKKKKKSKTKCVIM
Sequence of KRAS G12S (P62937 whole entry): as the sequence (P62937 whole entry) above
How it was run: as §2

[6] = biological target: KRAS G12V (Homo sapiens (Human), UniProt P01116+P62937, G12V); experiment: as above; assay type: biochemical; conditions: read-out: KRAS G12V FRET IC50
Sequence of KRAS G12V (P01116 other isoform, or with tags, fused parts or gaps G12V): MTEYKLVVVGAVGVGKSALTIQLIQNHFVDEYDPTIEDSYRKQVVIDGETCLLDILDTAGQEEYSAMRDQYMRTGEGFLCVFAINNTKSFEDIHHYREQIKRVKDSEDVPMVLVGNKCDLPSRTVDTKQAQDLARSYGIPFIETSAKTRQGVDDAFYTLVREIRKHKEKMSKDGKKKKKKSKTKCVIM
Sequence of KRAS G12V (P62937 whole entry): as the sequence (P62937 whole entry) above
How it was run: as §2

[7] = biological target: KRAS G13C (Homo sapiens (Human), UniProt P01116+P62937, G13C); experiment: as above; assay type: biochemical; conditions: read-out: KRAS G13C FRET IC50
Sequence of KRAS G13C (P01116 other isoform, or with tags, fused parts or gaps G13C): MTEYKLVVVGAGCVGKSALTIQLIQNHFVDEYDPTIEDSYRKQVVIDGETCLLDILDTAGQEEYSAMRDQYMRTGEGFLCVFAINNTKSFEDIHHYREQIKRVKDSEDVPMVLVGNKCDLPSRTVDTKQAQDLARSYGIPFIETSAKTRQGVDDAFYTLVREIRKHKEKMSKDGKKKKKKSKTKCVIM
Sequence of KRAS G13C (P62937 whole entry): as the sequence (P62937 whole entry) above
How it was run: as §2

[8] = biological target: KRAS G13D (Homo sapiens (Human), UniProt P01116+P62937, G13D); experiment: as above; assay type: biochemical; conditions: read-out: KRAS G13D FRET data IC50
Sequence of KRAS G13D (P01116 other isoform, or with tags, fused parts or gaps G13D): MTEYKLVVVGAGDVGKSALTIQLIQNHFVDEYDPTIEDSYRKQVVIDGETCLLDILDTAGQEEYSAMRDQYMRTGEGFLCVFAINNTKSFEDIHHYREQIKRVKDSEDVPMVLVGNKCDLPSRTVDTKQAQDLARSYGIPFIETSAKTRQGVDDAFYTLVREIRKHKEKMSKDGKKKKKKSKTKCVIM
Sequence of KRAS G13D (P62937 whole entry): as the sequence (P62937 whole entry) above
How it was run: as §2

[9] = biological target: KRAS WT (Homo sapiens (Human), UniProt P01116+P62937); experiment: as above; assay type: biochemical; conditions: read-out: KRAS WT FRET data IC50
Sequence of KRAS WT (P01116 other isoform, or with tags, fused parts or gaps): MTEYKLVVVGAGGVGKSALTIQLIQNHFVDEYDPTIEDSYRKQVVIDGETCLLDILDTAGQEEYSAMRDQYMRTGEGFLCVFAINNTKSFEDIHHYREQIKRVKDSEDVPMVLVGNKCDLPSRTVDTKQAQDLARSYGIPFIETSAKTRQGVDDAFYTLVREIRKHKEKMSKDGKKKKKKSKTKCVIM
Sequence of KRAS WT (P62937 whole entry): as the sequence (P62937 whole entry) above
How it was run: as §2

[10] = biological target: NRAS G12C (Homo sapiens (Human), UniProt P01111+P62937, G12C); experiment: as above; assay type: biochemical; conditions: read-out: NRAS G12C FRET data IC50
Sequence of NRAS G12C (P01111 whole entry G12C): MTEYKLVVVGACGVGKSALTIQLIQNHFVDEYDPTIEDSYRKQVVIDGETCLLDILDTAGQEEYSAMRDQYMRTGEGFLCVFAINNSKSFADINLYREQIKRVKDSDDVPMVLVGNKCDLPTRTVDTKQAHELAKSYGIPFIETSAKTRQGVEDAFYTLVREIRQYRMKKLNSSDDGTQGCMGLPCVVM
Sequence of NRAS G12C (P62937 whole entry): as the sequence (P62937 whole entry) above
How it was run: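 Measured: compound-facilitated Cyclophilin A:Ras complex blocking RAF RBD binding. Conditions: 12.5 nM Ras-GMPPNP, 50 nM BRAF RBD, 25 μM CypA, 3 h plus 1.5 h detection. Output: IC50 from TR-FRET ratio.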

[11] = system: NCI-H358 (K-Ras G12C); experiment: CellTiter-Glo cell viability assay, NCI-H358; assay type: cell-based, human
How it was run: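 Luminescent CellTiter-Glo read-out on day 5 after compound exposure; signal expressed as percent of mean DMSO control; four-parameter logistic fit gives the value.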

[12] = biological target: K-Ras G12C(GMP-PNP) binding to BRAF RBD (Homo sapiens (Human), UniProt P01116+P62937, G12C); experiment: Disruption of BRAF RBD interaction with K-Ras (FRET / MOA assay), K-Ras G12C; assay type: biochemical; conditions: read-out: KRAS G12C FRET IC50
Sequence of K-Ras G12C(GMP-PNP) binding to BRAF RBD (P01116 other isoform, or with tags, fused parts or gaps G12C): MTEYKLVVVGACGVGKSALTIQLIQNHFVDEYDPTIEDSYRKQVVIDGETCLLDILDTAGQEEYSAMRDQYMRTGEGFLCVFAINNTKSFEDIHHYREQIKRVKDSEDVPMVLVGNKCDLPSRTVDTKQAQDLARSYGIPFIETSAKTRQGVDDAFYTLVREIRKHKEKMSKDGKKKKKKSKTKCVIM
Sequence of K-Ras G12C(GMP-PNP) binding to BRAF RBD (P62937 whole entry): as the sequence (P62937 whole entry) above
Text: Note—The following protocol describes a procedure for monitoring disruption of K-Ras G12C(GMP-PNP) binding to BRAF^RBD by a compound of the invention. This protocol may also be executed substituting other Ras proteins or nucleotides.
The purpose of this biochemical assay was to measure the ability of test compounds to facilitate ternary complex formation between a nucleotide-loaded K-Ras isoform and Cyclophilin A; the resulting ternary complex disrupts binding to a BRAF^RBD construct, inhibiting K-Ras signaling through a RAF effector. Data is reported as IC50 values.
Compound was present in plate wells as a 10-point 3-fold dilution series starting at a final concentration of 30 μM. After incubation at 25° C. for 3 hours, a mixture of Anti-His Eu—W1024 and anti-GST allophycocyanin was then added to assay sample wells at final concentrations of 10 nM and 50 nM, respectively, and the reaction incubated for an additional 1.5 hours. […] Compounds that facilitate disruption of a K-Ras: RAF complex were identified as those eliciting a decrease in the TR-FRET ratio relative to DMSO control wells.

[13] = system: K-Ras G12C (NCI-H358 cells); experiment: Potency assay: pERK in NCI-H358 cells; assay type: cell-based, human; conditions: NCI-H358 cells, 4 hours, read-out: pERK EC50 (H358 KRAS G12C)
How it was run: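 Cells plated the day before were exposed for 4 h at 37° C, 5% CO2 to a 10-point, 3-fold DMSO dilution series (10 mM top stock), in duplicate. Phospho-ERK was read by AlphaLISA SureFire Ultra or by In-Cell Western with DRAQ5 DNA stain, and IC50 came from a 4-parameter sigmoidal fit.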

[14] = Homo sapiens, NCI-H358, 120 h, 5-day treatment, read-out: H358 Cell Viability assay data (K-Ras G12C, IC50)

Compound | IC50 ([1]; Homo sapiens, NCI-H358, 120 h) | IC50 ([2]; Homo sapiens, CAPAN-1, 120 h) | IC50 [3] | IC50 [4] | IC50 [5] | IC50 [6] | IC50 [7] | IC50 [8] | IC50 [9] | IC50 [10] | IC50 [11, 14] | IC50 [12] | IC50 [1] | IC50 [2] | EC50 [13] | IC50 ([11]; 5-day treatment, read-out: H358 Cell Viability assay data (K-Ras G12C, IC50)) | EC50 ([13]; Homo sapiens) | IC50 ([11]; Homo sapiens, NCI-H358, 120 h, read-out: H358 Cell Viability assay data (K-Ras G12C, IC50, uM), 5-day treatment)
CCn1c(-c2cccnc2[C@H](C)OC)c2c3cc(ccc31)-c1cc(O)cc(c1)C[C@H](NC(=O)[C@H](C(C)C)N(C)C(=O)[C@H]1C[C@@H]1F)C(=O)N1CCC[C@H](N1)C(=O)OCC(C)(C)C2 [Compound A161] | 100 to 1000 nM | 100 to 1000 nM | 100 to 1000 nM | 100 to 1000 nM | 100 to 1000 nM | 100 to 1000 nM | 100 to 1000 nM | 100 to 1000 nM | 100 to 1000 nM | 100 to 1000 nM | > 10 µM | 100 to 1000 nM |  |  |  |  |  | 
CCn1c(-c2cccnc2[C@H](C)OC)c2c3cc(ccc31)-c1cc(O)cc(c1)C[C@H](NC(=O)[C@H](C(C)C)N(C)C(=O)[C@@H]1[C@@H]3CNC[C@@H]31)C(=O)N1CCC[C@H](N1)C(=O)OCC(C)(C)C2 [Compound A164] | 10 to 100 nM | 100 to 1000 nM | 10 to 100 nM | 10 to 100 nM | 10 to 100 nM | 10 to 100 nM | 10 to 100 nM | 10 to 100 nM | 10 to 100 nM | 10 to 100 nM | 0.1 to 1 µM | 10 to 100 nM |  |  |  |  |  | 
CCn1c(-c2cnccc2COC)c2c3cc(ccc31)-c1cc(O)cc(c1)C[C@H](NC(=O)[C@H](C(C)C)N(C)C(=O)[C@H]1CNC[C@H]1C(F)(F)F)C(=O)N1CCC[C@H](N1)C(=O)OCC(C)(C)C2 [Compound A216] | 1000 to 10000 nM | 1000 to 10000 nM | 10 to 100 nM | 100 to 1000 nM | 100 to 1000 nM | 1000 to 10000 nM | 10 to 100 nM | 10 to 100 nM | 10 to 100 nM | 100 to 1000 nM |  | 100 to 1000 nM and 1000 to 10000 nM |  |  |  |  |  | 
CCn1c(-c2cccnc2[C@H](C)OC)c2c3cc(ccc31)-c1cc(O)cc(c1)C[C@H](NC(=O)[C@H](C(C)C)N(C)C(=O)[C@@H]1C[C@@H]1C)C(=O)N1CCC[C@H](N1)C(=O)OCC(C)(C)C2 [Compound A223] |  | 100 to 1000 nM | 10 to 100 nM | 10 to 100 nM | 10 to 100 nM | 10 to 100 nM | 10 to 100 nM | 10 to 100 nM | 10 to 100 nM | 10 to 100 nM | > 10 µM | 100 to 1000 nM and > 10000 nM |  |  |  |  |  | 
CCn1c(-c2cccnc2[C@H](C)OC)c2c3cc(ccc31)-c1csc(n1)C[C@H](NC(=O)[C@H]1[C@H](C)[C@@H]1C)C(=O)N1CCC[C@H](N1)C(=O)OCC(C)(C)C2 [Compound A227, (1R,2R,3S)—N-((6^3S,4S,Z)-1^1-ethyl-1^2-(2-((S)-1-methoxyethyl)pyridin-3-yl)-10,10-dimethyl-5,7-dioxo-6^1,6^2,6^3,6^4,6^5,6^6-hexahydro-1^1H-8-oxa-2 (4,2)-thiazola-1 (5,3)-indola-6 (1,3)-pyridazinacycloundecaphane-4-yl)-2,3-dimethylcyclopropane-1-carboxamide] |  |  |  |  |  |  | 10 to 100 nM |  |  |  |  | 100 to 1000 nM | 1000 to 10000 nM | > 10000 nM | < 5000 nM | 0.1 to 1 µM |  | 
CCn1c(-c2cccnc2[C@H](C)OC)c2c3cc(ccc31)-c1cc(O)cc(c1)C[C@H](NC(=O)[C@H](C(C)C)N(C)C(=O)[C@H]1CN[C@@H]3CCO[C@H]13)C(=O)N1CCC[C@H](N1)C(=O)OCC(C)(C)C2 [Compound A231] | 100 to 1000 nM | 1000 to 10000 nM | 10 to 100 nM | 10 to 100 nM | 100 to 1000 nM | 100 to 1000 nM | 10 to 100 nM | 10 to 100 nM | 10 to 100 nM | 10 to 100 nM | > 10 µM | > 10000 nM |  |  |  |  |  | 
CCn1c(-c2cccnc2[C@H](C)OC)c2c3cc(ccc31)-c1csc(n1)C[C@H](NC(=O)[C@H](C(C)C)N(C)C(=O)N1C[C@H](C)N(C)C[C@@H]1C)C(=O)N1CCC[C@H](N1)C(=O)OCC(C)(C)C2 [Compound A283] | 100 to 1000 nM | 100 to 1000 nM |  |  |  |  |  |  |  |  |  | 10 to 100 nM and 1000 to 10000 nM |  |  |  |  | < 5000 nM | 
CCn1c(-c2cccnc2[C@H](C)OC)c2c3cc(ccc31)-c1csc(n1)C[C@H](NC(=O)[C@H](C(C)C)N(C)C(=O)N1C[C@@H]3C[C@H]1CN3C)C(=O)N1CCC[C@H](N1)C(=O)OCC(C)(C)C2 [Compound A314] | 100 to 1000 nM | 100 to 1000 nM | 100 to 1000 nM | 100 to 1000 nM | 100 to 1000 nM | 100 to 1000 nM | 100 to 1000 nM | 100 to 1000 nM | 100 to 1000 nM | 100 to 1000 nM | 0.1 to 1 µM | 100 to 1000 nM |  |  |  |  |  | 
CCn1c(-c2cccnc2[C@H](C)OC)c2c3cc(ccc31)-c1cc(O)cc(c1)C[C@H](NC(=O)[C@H](C(C)C)N(C)C(=O)N1CC(OC)C1)C(=O)N1CCC[C@H](N1)C(=O)OCC(C)(C)C2 [Compound A364] | 10 to 100 nM | 10 to 100 nM | 10 to 100 nM | 100 to 1000 nM | 100 to 1000 nM | 100 to 1000 nM | 10 to 100 nM | 100 to 1000 nM | 100 to 1000 nM | 10 to 100 nM | 0.1 to 1 µM | 100 to 1000 nM |  |  |  |  |  | 
CCn1c(-c2cccnc2[C@H](C)OC)c2c3cc(ccc31)-c1cc(O)cc(c1)C[C@H](NC(=O)[C@H](C(C)C)N(C)C(=O)[C@H]1CCN(C(C)=O)C1)C(=O)N1CCC[C@H](N1)C(=O)NCC(C)(C)C2 [Compound A431] |  |  | 100 to 1000 nM | 1000 to 10000 nM | 100 to 1000 nM | 100 to 1000 nM | 100 to 1000 nM | 1000 to 10000 nM | 1000 to 10000 nM | 100 to 1000 nM | 0.01 to 0.1 µM | 100 to 1000 nM |  |  |  |  |  | 
CCn1c(-c2cccnc2[C@H](C)OC)c2c3cc(ccc31)-c1csc(n1)C[C@H](NC(=O)[C@H](C(C)C)N(C)C(=O)N1CCC[C@@H](N(C)C)CC1)C(=O)N1CCC[C@H](N1)C(=O)OCC(C)(C)C2 [Compound A494] | 10 to 100 nM |  |  |  |  |  |  |  |  |  |  | 100 to 1000 nM |  |  |  |  |  | 0.1 to 1 µM
CCn1c(-c2cc(N3CCN(C)CC3)cnc2[C@H](C)OC)c2c3cc(ccc31)-c1csc(n1)C[C@H](NC(=O)[C@H](C(C)C)N(C)C(=O)[C@@H]1OCC[C@@H]1c1ccccc1)C(=O)N1CCC[C@H](N1)C(=O)OCC(C)(C)C2 [Compound A593] | < 10 nM | < 10 nM |  |  |  |  |  |  |  |  | 0.1 to 1 µM | 100 to 1000 nM |  |  |  |  | < 5000 nM | 
